This note sets out measurements from US8999994B2, “Derivatives of propargylamine having neuroprotective capacity for the treatment of Alzheimer's and Parkinson's diseases” (Consejo Superior de Investigaciones Cientificas, priority 2010, dated 2015).

Common to all, as to type: biochemical
The target in one test is AChE (electric eel) (Electrophorus electricus (Electric eel) (Gymnotus electricus), UniProt O42275). The conditions noted are these: acetylthiocholine iodide […], 10 min incubation, mean ± SEM, read-out: IC50 (μM) ChE EeAChE.
Chain of AChE (electric eel) (O42275 whole entry, looked up): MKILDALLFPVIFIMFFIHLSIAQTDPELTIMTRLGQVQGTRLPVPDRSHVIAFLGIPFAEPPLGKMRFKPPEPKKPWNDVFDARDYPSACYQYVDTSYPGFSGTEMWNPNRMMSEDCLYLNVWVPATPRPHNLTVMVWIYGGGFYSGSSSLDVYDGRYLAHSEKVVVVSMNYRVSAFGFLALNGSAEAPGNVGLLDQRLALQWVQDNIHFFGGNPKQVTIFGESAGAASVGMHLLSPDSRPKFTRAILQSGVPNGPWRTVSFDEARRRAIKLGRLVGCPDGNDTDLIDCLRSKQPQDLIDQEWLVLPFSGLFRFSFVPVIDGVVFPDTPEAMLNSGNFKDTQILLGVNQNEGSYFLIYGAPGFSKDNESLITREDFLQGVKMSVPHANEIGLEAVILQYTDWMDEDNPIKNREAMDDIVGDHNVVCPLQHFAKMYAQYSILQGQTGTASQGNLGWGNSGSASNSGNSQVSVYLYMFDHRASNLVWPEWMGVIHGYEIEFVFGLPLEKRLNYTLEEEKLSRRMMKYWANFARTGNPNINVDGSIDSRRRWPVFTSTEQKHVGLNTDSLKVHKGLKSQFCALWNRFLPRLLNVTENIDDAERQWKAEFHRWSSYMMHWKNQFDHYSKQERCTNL
In the next test the target is MAO-B (Rattus norvegicus (Rat), UniProt P19643). The test is described as follows: Inhibition of monoamine oxidase B (Fowler and Tipton radiometric method, rat liver mitochondria).
Chain of MAO-B (P19643 whole entry): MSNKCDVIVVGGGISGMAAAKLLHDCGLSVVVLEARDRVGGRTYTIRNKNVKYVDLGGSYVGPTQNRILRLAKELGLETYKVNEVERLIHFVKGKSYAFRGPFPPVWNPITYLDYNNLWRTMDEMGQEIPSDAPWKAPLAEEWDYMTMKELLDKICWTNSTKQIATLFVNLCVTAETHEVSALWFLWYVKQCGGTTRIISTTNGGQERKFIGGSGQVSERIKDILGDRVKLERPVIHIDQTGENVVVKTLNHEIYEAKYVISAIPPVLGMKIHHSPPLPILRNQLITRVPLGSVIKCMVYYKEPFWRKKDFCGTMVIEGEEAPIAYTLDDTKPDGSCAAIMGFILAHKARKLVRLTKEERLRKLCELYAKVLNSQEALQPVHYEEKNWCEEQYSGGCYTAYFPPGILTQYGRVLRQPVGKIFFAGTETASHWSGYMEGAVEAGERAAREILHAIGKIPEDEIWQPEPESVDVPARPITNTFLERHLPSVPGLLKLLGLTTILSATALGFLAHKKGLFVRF
Another test has as its target MAO-A (Rattus norvegicus (Rat), UniProt P21396). The test is described as follows: Inhibition of monoamine oxidase A (Fowler and Tipton radiometric method, rat liver mitochondria).
Setting [1] is: rat liver mitochondria, [14C]-phenylethylamine 20 μM substrate, 30 min incubation, mean ± SEM.
[2] abbreviates: rat liver mitochondria, [14C]-5-HT 100 μM substrate, 30 min incubation, mean ± SEM, read-out: IC50 (μM) MAO MAO-A.

Like-named read-outs stand apart in the source and are kept apart here.

Chain of MAO-A (P21396 whole entry): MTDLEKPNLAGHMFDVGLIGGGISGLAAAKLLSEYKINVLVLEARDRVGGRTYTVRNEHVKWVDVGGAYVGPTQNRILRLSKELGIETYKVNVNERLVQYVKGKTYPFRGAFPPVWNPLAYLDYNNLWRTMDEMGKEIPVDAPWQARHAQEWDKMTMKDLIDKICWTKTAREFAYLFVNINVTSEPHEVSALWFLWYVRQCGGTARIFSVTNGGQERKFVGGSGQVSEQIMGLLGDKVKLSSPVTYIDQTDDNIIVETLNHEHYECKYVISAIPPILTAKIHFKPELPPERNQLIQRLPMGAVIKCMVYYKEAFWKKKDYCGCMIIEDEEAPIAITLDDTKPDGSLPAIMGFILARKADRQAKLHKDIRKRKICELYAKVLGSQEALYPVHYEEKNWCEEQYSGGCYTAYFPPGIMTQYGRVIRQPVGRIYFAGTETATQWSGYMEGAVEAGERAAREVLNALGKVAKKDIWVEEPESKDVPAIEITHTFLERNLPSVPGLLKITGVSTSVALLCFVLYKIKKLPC

Usually IC50 stands for the concentration that gives 50% inhibition. As to `C#CCN(C)Cc1cc2cc(OCCN3CCC(Cc4ccccc4)CC3)ccc2n1C` [Compound 1, N-{(5-[2-(4-benzylpiperidin-1-yl)ethoxy)-1-methyl-1H-indol-2-yl]methyl}-N-methylprop-2-yn-1-amine], the IC50 was above 100 µM on AChE (electric eel), 1.46 ± 0.499 µM against MAO-B (setting [1]) and 0.143 ± 0.0443 µM at MAO-A (setting [2]).
Taken in the same sequence, the figures for `C#CCN(C)Cc1cc2cc(OCCCCC3CCN(Cc4ccccc4)CC3)ccc2n1C` [Compound 7, N-((5-[4-(1-benzylpiperidin-4-yl)butoxy)-1-methyl-1H-indol-2-yl)methyl)-N-methylprop-2-yn-1-amine] were 0.26 ± 0.07 µM, 2.77 ± 0.116 µM and 0.0105 ± 0.0044 µM.
For `C#CCN(C)Cc1cc2cc(OCC3CCN(Cc4ccccc4)CC3)ccc2n1C` [Compound 4, N-{(5-((1-benzylpiperidin-4-yl)methoxy)-1-methyl-1H-indol-2-yl)methyl}-N-methylprop-2-yn-1-amine], the results for the half-maximal inhibitory concentration (IC50) on AChE (electric eel), against MAO-B and at MAO-A (setting [2]) were 0.31 ± 0.04 µM, 0.745 ± 0.0199 µM and 0.0822 ± 0.0032 µM, respectively.
`C#CCN(C)Cc1cc2cc(OCCCN3CCC(Cc4ccccc4)CC3)ccc2n1C` [Compound 2, N-{(5-[3-(4-benzylpiperidin-1-yl)propoxy)-1-methyl-1H-indol-2-yl]methyl}-N-methylprop-2-yn-1-amine]: the IC50 turned out to be 18.1 ± 0.4 µM on AChE (electric eel), 11.3 ± 2.38 µM against MAO-B (setting [1]) and 0.0654 ± 0.0174 µM at MAO-A (read-out: IC50 (μM) MAO MAO-A).
As to `C#CCN(C)Cc1cc2cc(OCCCC3CCN(Cc4ccccc4)CC3)ccc2n1C` [Compound 6, N-((5-[3-(1-benzylpiperidin-4-yl)propoxy)-1-methyl-1H-indol-2-yl)methyl)-N-methylprop-2-yn-1-amine], the concentration for half-maximal inhibition (IC50) turned out to be 0.0431 ± 0.0079 µM against MAO-B (setting [1]) and 0.0052 ± 0.0011 µM at MAO-A (setting [2]).
`C#CCN(C)Cc1cc2cc(OCCC3CCN(Cc4ccccc4)CC3)ccc2n1C` [Compound 5, N-((5-(2-(1-benzylpiperidin-4-yl)ethoxy)-1-methyl-1H-indol-2-yl)methyl)-N-methylprop-2-yn-1-amine]: the half-inhibitory concentration (IC50) on AChE (electric eel) is 0.42 ± 0.04 µM; at MAO-B, 0.13 ± 0.0414 µM; at MAO-A (setting [2]) it was 0.0067 ± 0.0018 µM.
For the compound `Nc1c2c(nc3ccccc13)CCCC2` [Tacrine, tacrine, reference compound], the “IC50 (μM) MAO MAO-B” value against MAO-B came to 499.6 ± 12.8 µM.
Turning to `C#CCN(C)Cc1cc2cc(OCCCN3CCN(Cc4ccccc4)CC3)ccc2n1C` [Compound 3, N-{(5-[3-(4-benzylpiperazin-1-yl)propoxy)-1-methyl-1H-indol-2-yl]methyl}-N-methylprop-2-yn-1-amine], the results for the half-inhibitory concentration (IC50) on AChE (electric eel), on MAO-B (setting [1]) and against MAO-A were above 100 µM, 1.64 ± 0.707 µM and 0.0305 ± 0.0135 µM, respectively.
